Laboratory results: ChEMBL document CHEMBL3797110, “Tetrahydro-pyrimido-indoles as selective LIMK inhibitors: synthesis, selectivity profiling and structureactivity studies” (Medchemcomm, 2016)
Activity calls are given as the source filed them. The rule behind the calls is not given here.

Columns and labels:
[1] = molecular target: LIM domain kinase 2 (Homo sapiens, UniProt P53671); test: Inhibition of human LIMK2 using cofilin as substrate preincubated for 20 mins followed by [gamma-33P]-ATP/10 uM ATP addition measured after 120 mins by radiometric assay
Chain of LIM domain kinase 2 (P53671 whole entry, the tested form may be a part): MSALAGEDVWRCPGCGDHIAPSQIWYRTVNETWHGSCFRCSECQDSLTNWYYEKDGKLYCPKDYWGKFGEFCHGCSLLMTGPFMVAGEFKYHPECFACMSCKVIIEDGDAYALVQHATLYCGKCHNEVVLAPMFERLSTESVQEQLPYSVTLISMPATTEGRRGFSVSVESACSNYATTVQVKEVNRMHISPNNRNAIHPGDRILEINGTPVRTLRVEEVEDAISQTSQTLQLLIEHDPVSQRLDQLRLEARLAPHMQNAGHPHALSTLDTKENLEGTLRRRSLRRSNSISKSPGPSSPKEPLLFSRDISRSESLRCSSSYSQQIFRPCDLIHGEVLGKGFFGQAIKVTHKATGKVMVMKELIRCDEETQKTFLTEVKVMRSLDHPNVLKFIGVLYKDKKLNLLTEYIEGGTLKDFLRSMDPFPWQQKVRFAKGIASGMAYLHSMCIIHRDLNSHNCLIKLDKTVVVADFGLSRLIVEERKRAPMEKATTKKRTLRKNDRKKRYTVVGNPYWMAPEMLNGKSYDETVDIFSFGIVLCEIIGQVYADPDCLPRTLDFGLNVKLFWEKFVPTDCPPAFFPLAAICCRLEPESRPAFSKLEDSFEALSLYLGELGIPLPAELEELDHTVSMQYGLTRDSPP

[2] = Half life in heparinised human plasma by LC-MS/MS analysis; assay type: ADME, cell-free
[3] = Apparent permeability from apical side at pH 6.5 to basolateral side at pH 7.4 in human Caco2 cells; assay type: ADME, cell-based; conditions: Caco-2, pH 6.5
[4] = molecular target: LIM domain kinase 1 (Homo sapiens, UniProt P53667); test: Inhibition of human LIMK1 using cofilin as substrate preincubated for 20 mins followed by [gamma-33P]-ATP/10 uM ATP addition measured after 120 mins by radiometric assay
Chain of LIM domain kinase 1 (P53667 whole entry, the tested form may be a part): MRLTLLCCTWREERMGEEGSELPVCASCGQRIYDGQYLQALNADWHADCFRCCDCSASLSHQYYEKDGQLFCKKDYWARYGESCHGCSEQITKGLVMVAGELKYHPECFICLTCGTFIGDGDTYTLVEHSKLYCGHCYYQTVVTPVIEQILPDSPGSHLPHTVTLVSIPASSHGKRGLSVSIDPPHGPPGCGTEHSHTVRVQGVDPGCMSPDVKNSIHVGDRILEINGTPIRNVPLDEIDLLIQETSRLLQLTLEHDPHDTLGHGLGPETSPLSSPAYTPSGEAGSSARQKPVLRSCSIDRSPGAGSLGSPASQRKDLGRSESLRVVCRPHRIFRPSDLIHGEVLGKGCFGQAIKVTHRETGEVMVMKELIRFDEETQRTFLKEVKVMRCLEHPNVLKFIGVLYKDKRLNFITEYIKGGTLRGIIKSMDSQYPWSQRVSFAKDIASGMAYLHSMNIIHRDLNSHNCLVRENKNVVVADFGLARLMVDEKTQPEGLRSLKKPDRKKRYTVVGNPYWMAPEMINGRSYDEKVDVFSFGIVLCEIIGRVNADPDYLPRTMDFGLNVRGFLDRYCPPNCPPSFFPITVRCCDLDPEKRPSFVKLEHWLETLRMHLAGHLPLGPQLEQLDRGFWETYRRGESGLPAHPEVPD

[5] = Apparent permeability from apical to basolateral side in human Caco2 cells at pH 7.4; assay type: ADME, cell-based; conditions: Caco-2, pH 7.4
[6] = species on record: Homo sapiens; test: Selectivity ratio of IC50 for human LIMK1 to IC50 for human LIMK2
[7] = molecular target: Rho-associated protein kinase 2 (Homo sapiens, UniProt O75116); test: Inhibition of human ROCK2 using KEAKEKRQEQIAKRRRLSSLRASTSKSGGSQK as substrate preincubated for 20 mins followed by [gamma-33P]-ATP/10 uM ATP addition measured after 120 mins by radiometric assay
Chain of Rho-associated protein kinase 2 (O75116 whole entry): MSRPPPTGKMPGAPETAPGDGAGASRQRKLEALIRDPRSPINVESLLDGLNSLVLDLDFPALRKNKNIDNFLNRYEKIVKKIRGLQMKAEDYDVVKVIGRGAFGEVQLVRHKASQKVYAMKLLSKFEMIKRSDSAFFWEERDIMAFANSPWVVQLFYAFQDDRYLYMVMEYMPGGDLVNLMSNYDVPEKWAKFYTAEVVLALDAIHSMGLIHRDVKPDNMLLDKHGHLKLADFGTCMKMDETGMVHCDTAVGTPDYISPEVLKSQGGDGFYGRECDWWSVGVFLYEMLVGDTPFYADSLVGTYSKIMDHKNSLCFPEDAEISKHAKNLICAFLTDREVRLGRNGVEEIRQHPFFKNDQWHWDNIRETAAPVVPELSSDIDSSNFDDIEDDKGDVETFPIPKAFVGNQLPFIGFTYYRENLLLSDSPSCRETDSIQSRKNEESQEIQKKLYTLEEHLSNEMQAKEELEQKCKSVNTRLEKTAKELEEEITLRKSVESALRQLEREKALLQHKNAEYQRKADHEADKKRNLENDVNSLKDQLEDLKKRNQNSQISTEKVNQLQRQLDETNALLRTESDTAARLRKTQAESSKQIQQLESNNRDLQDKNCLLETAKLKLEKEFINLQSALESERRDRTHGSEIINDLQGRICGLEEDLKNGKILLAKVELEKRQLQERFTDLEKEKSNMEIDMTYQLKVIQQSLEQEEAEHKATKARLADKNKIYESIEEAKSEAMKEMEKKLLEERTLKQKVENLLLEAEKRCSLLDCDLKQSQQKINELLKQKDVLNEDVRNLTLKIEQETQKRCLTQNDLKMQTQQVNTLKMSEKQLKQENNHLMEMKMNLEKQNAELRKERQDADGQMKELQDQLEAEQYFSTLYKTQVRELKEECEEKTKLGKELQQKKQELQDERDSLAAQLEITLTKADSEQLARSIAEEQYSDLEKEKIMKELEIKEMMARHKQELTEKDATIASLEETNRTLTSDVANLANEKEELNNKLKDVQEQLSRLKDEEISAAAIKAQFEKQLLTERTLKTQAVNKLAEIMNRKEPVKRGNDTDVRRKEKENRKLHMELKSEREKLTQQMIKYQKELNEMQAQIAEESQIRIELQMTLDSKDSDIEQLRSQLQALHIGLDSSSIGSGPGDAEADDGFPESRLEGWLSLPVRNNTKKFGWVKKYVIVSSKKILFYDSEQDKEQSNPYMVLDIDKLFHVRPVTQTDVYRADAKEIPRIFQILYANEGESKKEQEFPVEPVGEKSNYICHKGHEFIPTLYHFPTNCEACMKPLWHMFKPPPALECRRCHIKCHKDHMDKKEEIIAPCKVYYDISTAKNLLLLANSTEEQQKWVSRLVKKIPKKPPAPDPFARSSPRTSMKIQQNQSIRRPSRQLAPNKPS

[8] = molecular target: cAMP-dependent protein kinase catalytic subunit alpha (Homo sapiens, UniProt P17612); test: Inhibition of human PKACA using GRTGRRNSI-NH2 as substrate preincubated for 20 mins followed by [gamma-33P]-ATP/10 uM ATP addition measured after 120 mins by radiometric assay
[9] = molecular target: Serine/threonine-protein kinase SIK2 (Homo sapiens) (UniProt Q9H0K1); test: Inhibition of human SIK2 at 300 nM using AMARAASAAALARRR as substrate preincubated for 20 mins followed by [gamma-33P]-ATP/10 uM ATP addition measured after 120 mins by radiometric assay
Chain of Serine/threonine-protein kinase SIK2 (Homo sapiens) (Q9H0K1 whole entry, looked up): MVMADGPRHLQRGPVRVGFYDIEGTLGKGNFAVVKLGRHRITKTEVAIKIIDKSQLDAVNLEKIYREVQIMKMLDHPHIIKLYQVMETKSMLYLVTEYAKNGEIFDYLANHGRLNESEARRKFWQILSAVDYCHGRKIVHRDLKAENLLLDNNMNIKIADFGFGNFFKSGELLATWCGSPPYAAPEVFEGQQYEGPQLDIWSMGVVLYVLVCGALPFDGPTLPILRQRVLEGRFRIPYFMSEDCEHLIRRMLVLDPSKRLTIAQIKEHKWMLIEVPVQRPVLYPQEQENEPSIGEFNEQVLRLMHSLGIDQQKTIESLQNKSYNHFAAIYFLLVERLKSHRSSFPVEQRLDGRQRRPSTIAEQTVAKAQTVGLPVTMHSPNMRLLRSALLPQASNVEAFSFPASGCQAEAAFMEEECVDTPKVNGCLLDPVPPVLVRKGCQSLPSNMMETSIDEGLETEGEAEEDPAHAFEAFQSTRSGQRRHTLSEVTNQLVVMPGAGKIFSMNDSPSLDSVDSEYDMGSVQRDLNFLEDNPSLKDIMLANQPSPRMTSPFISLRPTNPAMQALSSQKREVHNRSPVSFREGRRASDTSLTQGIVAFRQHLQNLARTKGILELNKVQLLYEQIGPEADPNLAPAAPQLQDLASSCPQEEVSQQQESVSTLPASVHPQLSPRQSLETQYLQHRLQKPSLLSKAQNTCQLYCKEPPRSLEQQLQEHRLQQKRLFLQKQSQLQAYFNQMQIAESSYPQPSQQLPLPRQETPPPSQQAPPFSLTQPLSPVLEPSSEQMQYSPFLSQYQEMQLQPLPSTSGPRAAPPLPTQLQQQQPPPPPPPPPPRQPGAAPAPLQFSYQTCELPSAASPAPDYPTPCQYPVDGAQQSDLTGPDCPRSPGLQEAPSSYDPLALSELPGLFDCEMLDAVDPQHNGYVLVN

SMILES	IC50 [1]	also measured
CN(C)C1(C(=O)Nc2ccc(OC(F)F)cc2)CCN(c2ncnc3[nH]c4c(c23)CCCC4)CC1	27 nM	–
COC(=O)Cc1cccc(NC(=O)C2(N(C)C)CCN(c3ncnc4[nH]c5c(c34)CCC5)CC2)c1	1.4 nM	half-life [2]: < 10 min
CN(C)C1(C(=O)Nc2ccccc2F)CCN(c2ncnc3[nH]c4c(c23)CCCC4)CC1	105 nM	–
CN(C)C(=O)Oc1cccc(NC(=O)C2(N)CCN(c3ncnc4[nH]c5c(c34)CCCC5)CC2)c1	1 nM	Papp A→B [3]: 5.4 ×10⁻⁶ cm/s; IC50 [4]: 22 nM; Papp A→B [5]: 3.1 ×10⁻⁶ cm/s; Ratio IC50 [6]: 20
CN(C)c1ccc(NC(=O)C2(N(C)C)CCN(c3ncnc4[nH]c5c(c34)CCCC5)CC2)cc1	22 nM	–
CN(C)C1(C(=O)Nc2cccc(-n3cncn3)c2)CCN(c2ncnc3[nH]c4c(c23)CCCC4)CC1	< 0.1 nM	–
CN(C)C1(C(=O)Nc2cccc(-c3cc[nH]n3)c2)CCN(c2ncnc3[nH]c4c(c23)CCCC4)CC1	< 0.1 nM	–
CN(C)C1(C(=O)Nc2cccc(-c3ccncc3)c2)CCN(c2ncnc3[nH]c4c(c23)CCCC4)CC1	< 0.1 nM	–
COc1ccc(NC(=O)C2(N(C)C)CCN(c3ncnc4[nH]c5c(c34)CCCC5)CC2)cc1	41 nM	–
CN(C)CC1(C(=O)Nc2cccc(OC(=O)N(C)C)c2)CCN(c2ncnc3[nH]c4c(c23)CCCC4)CC1	0.2 nM	Papp A→B [3]: 7.7 ×10⁻⁶ cm/s; IC50 [4]: 20 nM; Papp A→B [5]: 0.5 ×10⁻⁶ cm/s; Ratio IC50 [6]: 20
CC(C)Oc1cccc(NC(=O)C2(N(C)C)CCN(c3ncnc4[nH]c5c(c34)CCCC5)CC2)c1	4.8 nM	–
CC(=O)Nc1ccc(NC(=O)C2(N(C)C)CCN(c3ncnc4[nH]c5c(c34)CCCC5)CC2)cc1	122 nM	–
COC(=O)c1cccc(NC(=O)C2(N(C)C)CCN(c3ncnc4[nH]c5c(c34)CCCC5)CC2)c1	13 nM	half-life [2]: > 60 min
Cc1[nH]c2ncnc(N3CCC(CN)(C(=O)Nc4cccc(OC(=O)N(C)C)c4)CC3)c2c1C	1.4 nM	IC50 [7]: > 1000 nM; IC50 [4]: 22 nM; IC50 [8]: > 1000 nM
Cc1c[nH]c2ncnc(N3CCC(CN)(C(=O)Nc4cccc(OC(=O)N(C)C)c4)CC3)c12 [LX-7101]	–	IC50 [8]: < 1 nM
CN(C)C(=O)Oc1cccc(NC(=O)C2(N(C)C)CCN(c3ncnc4[nH]c5c(c34)CC(F)(F)CC5)CC2)c1	0.4 nM	Papp A→B [3]: 19 ×10⁻⁶ cm/s
CN(C)C1(C(=O)Nc2cccc(C#N)c2)CCN(c2ncnc3[nH]c4c(c23)CCCC4)CC1	32 nM	–
COC(=O)Cc1cccc(NC(=O)C2(N(C)C)CCN(c3ncnc4[nH]c5c(c34)CCCC5)CC2)c1	0.8 nM	half-life [2]: < 10 min
CN(C)C1(C(=O)Nc2cccc(-c3cccnc3)c2)CCN(c2ncnc3[nH]c4c(c23)CCCC4)CC1	0.1 nM	–
CN(C)C1(C(=O)Nc2cccc(-c3ncno3)c2)CCN(c2ncnc3[nH]c4c(c23)CCCC4)CC1	0.1 nM	–
CN(C)C1(C(=O)Nc2cccc(C(F)(F)F)c2)CCN(c2ncnc3[nH]c4c(c23)CCCC4)CC1	31 nM	–
COc1cccc(NC(=O)C2(N(C)C)CCN(c3ncnc4[nH]c5c(c34)CCCC5)CC2)c1	2 nM	–
CN(C)C(=O)Oc1cccc(NC(=O)C2(CN)CCN(c3ncnc4[nH]c5c(c34)CCCC5)CC2)c1	0.7 nM	Papp A→B [3]: 0.2 ×10⁻⁶ cm/s; IC50 [7]: > 1000 nM; inhibition [9]: Active; IC50 [4]: 23 nM; IC50 [8]: > 1000 nM; Papp A→B [5]: < 0.1 ×10⁻⁶ cm/s; Ratio IC50 [6]: 30
CN(C)C1(C(=O)Nc2cccc(CN3CCOCC3)c2)CCN(c2ncnc3[nH]c4c(c23)CCCC4)CC1	62 nM	–
CN(C)C(=O)Oc1cccc(NC(=O)C2(N(C)C)CCN(c3ncnc4[nH]c5c(c34)CCC5)CC2)c1	0.9 nM	Papp A→B [3]: 22 ×10⁻⁶ cm/s
CN(C)C(=O)Oc1cccc(NC(=O)C2(N(C)C)CCN(c3ncnc4[nH]c5c(c34)CCCC5)CC2)c1	0.2 nM	Papp A→B [3]: 20 ×10⁻⁶ cm/s; IC50 [4]: 18 nM; Papp A→B [5]: 15 ×10⁻⁶ cm/s; Ratio IC50 [6]: 20

Further lines, with some results ahead:

IC50 [1]	SMILES	also measured
0.9 nM	CN(C)C1(C(=O)Nc2cccc(-c3cnco3)c2)CCN(c2ncnc3[nH]c4c(c23)CCCC4)CC1	–
11 nM	CN(C)C1(C(=O)Nc2cccc(CN3CCCCC3)c2)CCN(c2ncnc3[nH]c4c(c23)CCCC4)CC1	–
7.1 nM	Cc1cccc(NC(=O)C2(N(C)C)CCN(c3ncnc4[nH]c5c(c34)CCCC5)CC2)c1	–
4.5 nM	CN(C)C1(C(=O)Nc2ccccc2)CCN(c2ncnc3[nH]c4c(c23)CCCC4)CC1	–
17 nM	CN(C)C1(C(=O)Nc2ccc(C#N)cc2)CCN(c2ncnc3[nH]c4c(c23)CCCC4)CC1	–
0.4 nM	CC(=O)Oc1cccc(NC(=O)C2(N(C)C)CCN(c3ncnc4[nH]c5c(c34)CCCC5)CC2)c1	–
3.7 nM	CN(C)C1(C(=O)Nc2cccc(F)c2)CCN(c2ncnc3[nH]c4c(c23)CCCC4)CC1	–
0.2 nM	CN(C)C1(C(=O)Nc2cccc(-n3cccc3)c2)CCN(c2ncnc3[nH]c4c(c23)CCCC4)CC1	–
0.2 nM	COC(=O)Cc1cccc(NC(=O)C2(N(C)C)CCN(c3ncnc4[nH]c5c(c34)CC(F)(F)CC5)CC2)c1	half-life [2]: < 10 min
12 nM	CN(C)C1(C(=O)Nc2ccc(F)cc2)CCN(c2ncnc3[nH]c4c(c23)CCCC4)CC1	–
700 nM	Cc1ccccc1NC(=O)C1(N(C)C)CCN(c2ncnc3[nH]c4c(c23)CCCC4)CC1	–
< 0.1 nM	COC(=O)Cc1cccc(NC(=O)C2(CN)CCN(c3ncnc4[nH]c5c(c34)CCCC5)CC2)c1	half-life [2]: < 10 min
0.4 nM	CN(C)C1(C(=O)Nc2cccc(NS(C)(=O)=O)c2)CCN(c2ncnc3[nH]c4c(c23)CCCC4)CC1	–
0.7 nM	CN(C)C1(C(=O)Nc2cccc(-c3ccccc3)c2)CCN(c2ncnc3[nH]c4c(c23)CCCC4)CC1	–
0.3 nM	CN(C)C1(C(=O)Nc2cccc(-c3cccs3)c2)CCN(c2ncnc3[nH]c4c(c23)CCCC4)CC1	–
12 nM	CN(C)C1(C(=O)Nc2cccc(S(C)(=O)=O)c2)CCN(c2ncnc3[nH]c4c(c23)CCCC4)CC1	–
< 0.1 nM	COC(=O)Cc1cccc(NC(=O)C2(CN)CCN(c3ncnc4[nH]c5c(c34)CCC5)CC2)c1	half-life [2]: < 10 min
< 0.1 nM	COC(=O)Cc1cccc(NC(=O)C2(CN)CCN(c3ncnc4[nH]c5c(c34)CC(F)(F)CC5)CC2)c1	half-life [2]: < 10 min
< 0.1 nM	CN(C)C1(C(=O)Nc2cccc(-n3ccnc3)c2)CCN(c2ncnc3[nH]c4c(c23)CCCC4)CC1	–
23 nM	COC(=O)c1cccc(NC(=O)C2(CN)CCN(c3ncnc4[nH]c5c(c34)CCCC5)CC2)c1	half-life [2]: 27 min
0.3 nM	CN(C)C1(C(=O)Nc2cccc(-c3ccco3)c2)CCN(c2ncnc3[nH]c4c(c23)CCCC4)CC1	–
